# Measurements as given in patent US11175289B2, “Application of TRPM8 protein, related peptide fragment and their antibodies” (priority 2016, dated 2021).
# Ends that are not written are not given here. * marks the point of attachment. Biotin = O=C1N[C@H]2[C@H](CS[C@H]2CCCCC(=O)*)N1
# Test system: TRPM8 protein and TRPM8 related peptide fragments
# Assay: Antibody identification of monoclonal antibodies
# Assay type: binding, human
# Settings: monoclonal antibody against the named antigen
# Source text: Freund's adjuvant is adopted for respectively immunizing the mice.
# 2. Detection of TRPM8 antibody: utilizing a radioimmunoassay (RIA) method.
substance,measurement,value
Biotin-DEVRQWYVNGVNYFTD [T-5],Affinity,10^12 L/mol
same,Specificity,High
Biotin-DGTTYDFAHCTFTGNESKPL [T-3],Affinity,10^12 L/mol
same,Specificity,High
Biotin-FKNEDNETLAWEGVMKENYL [T-2],Affinity,10^12 L/mol
same,Specificity,High
Biotin-LTVIKMEEAGDEIVSNA [T-6],Affinity,10^12 L/mol
same,Specificity,High
Biotin-VSRNLGPKIIMLQ [T-4],Affinity,10^12 L/mol
same,Specificity,High
CEMDI ELHDV SPITRH (CEMDIELHDVSPITRH; HUMAN) [T-12],Affinity,10^12 L/mol
same,Specificity,High
CFTGNE SKPLCV ELDEH NLPRFPE (CFTGNESKPLCVELDEHNLPRFPE; HUMAN) [T-9],Affinity,10^12 L/mol
same,Specificity,High
CKEKN MESSV CCFKN EDNET (CKEKNMESSVCCFKNEDNET; HUMAN) [T-7],Affinity,10^12 L/mol
same,Specificity,High
CSEEM RHRFR QLDTK LNDLKG (CSEEMRHRFRQLDTKLNDLKG; HUMAN) [T-8],Affinity,10^12 L/mol
same,Specificity,High
EMDIELHDVSPITRH (HUMAN) [T-18],Affinity,10^12 L/mol
same,Specificity,High
FTGNESKPLCVELDEHNLPRFPE (HUMAN) [T-15],Affinity,10^12 L/mol
same,Specificity,High
KEKNMESSVCCFKNEDNET (HUMAN) [T-13],Affinity,10^12 L/mol
same,Specificity,High
NRRND TLDST RTLYSS (NRRNDTLDSTRTLYSS; HUMAN) [T-10],Affinity,10^12 L/mol
same,Specificity,High
NRRNDTLDSTRTLYSSASRSTDLSYS (HUMAN) [T-16],Affinity,10^12 L/mol
same,Specificity,High
SEEMRHRFRQLDTKLNDLKG (HUMAN) [T-14],Affinity,10^12 L/mol
same,Specificity,High
VEVED ALTSS AVKEK LVRFC (VEVEDALTSSAVKEKLVRFC; HUMAN) [T-11],Affinity,10^12 L/mol
same,Specificity,High
VEVEDALTSSAVKEKLVRF (HUMAN) [T-17],Affinity,10^12 L/mol
same,Specificity,High
